From PubChem BioAssay (NCI)
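48-hour exposure; five concentrations; linearly interpolated endpoints. TGI denotes the concentration required for complete inhibition of growth.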

Assays:
Assay in all cases: NCI-60 cell line screen, 48 h
RXF 393 renal = tested on: RXF 393 renal
SNB-19 CNS = tested on: SNB-19 CNS
SF-539 CNS = tested on: SF-539 CNS
CAKI-1 renal = tested on: CAKI-1 renal
HL-60(TB) leukemia = tested on: HL-60(TB) leukemia
HCT-15 colon = tested on: HCT-15 colon
BT-549 breast = tested on: BT-549 breast
T-47D breast = tested on: T-47D breast
MCF7 breast = tested on: MCF7 breast
NCI/ADR-RES ovarian = tested on: NCI/ADR-RES ovarian
PC-3 prostate = tested on: PC-3 prostate
HCC-2998 colon = tested on: HCC-2998 colon

c1ccc2c(c1)OCCOCCOc1ccccc1OCCO2
TGI (RXF 393 renal): > 100 µM
TGI (SNB-19 CNS): > 100 µM
TGI (SF-539 CNS): > 100 µM
TGI (CAKI-1 renal): > 100 µM
TGI (HL-60(TB) leukemia): 69.1 µM
TGI (HCT-15 colon): > 100 µM

Cc1n[n+](Cc2ccccc2)c2sc(N)nn12
TGI (RXF 393 renal): > 100 µM
TGI (SNB-19 CNS): > 100 µM
TGI (SF-539 CNS): > 100 µM
TGI (BT-549 breast): > 100 µM
TGI (T-47D breast): > 100 µM
TGI (CAKI-1 renal): > 100 µM
TGI (MCF7 breast): > 100 µM
TGI (HCT-15 colon): > 100 µM
TGI (NCI/ADR-RES ovarian): > 100 µM
TGI (PC-3 prostate): > 100 µM

S=C1NCCN1C(=S)Nc1ccccc1
TGI (RXF 393 renal): 58 µM
TGI (SF-539 CNS): > 100 µM
TGI (BT-549 breast): > 100 µM
TGI (T-47D breast): > 100 µM
TGI (CAKI-1 renal): > 100 µM
TGI (HL-60(TB) leukemia): > 100 µM
TGI (MCF7 breast): > 100 µM
TGI (HCT-15 colon): > 100 µM
TGI (NCI/ADR-RES ovarian): > 100 µM
TGI (HCC-2998 colon): > 100 µM

CC(=O)OC(CCC1(C)OC1COc1ccc(CCNC(=O)C=C(C)C)cc1)C(C)(C)OC(C)=O (configuration not stated)
TGI (RXF 393 renal): > 31.6 µM
TGI (SNB-19 CNS): > 100 µM
TGI (SF-539 CNS): > 100 µM
TGI (BT-549 breast): 25.4 µM
TGI (T-47D breast): > 100 µM
TGI (CAKI-1 renal): > 100 µM
TGI (HL-60(TB) leukemia): > 56.7 µM
TGI (HCT-15 colon): > 100 µM
TGI (NCI/ADR-RES ovarian): 47.9 µM
TGI (PC-3 prostate): > 100 µM
TGI (HCC-2998 colon): > 100 µM

CCOC(=O)CCC1(CCC(=O)OCC)CCCCCCCCC(CCC(=O)OCC)(CCC(=O)OCC)C(=O)C1=O
TGI (SNB-19 CNS): > 100 µM
TGI (SF-539 CNS): > 100 µM
TGI (T-47D breast): > 100 µM
TGI (CAKI-1 renal): > 100 µM
TGI (MCF7 breast): > 100 µM
TGI (HCT-15 colon): > 100 µM
TGI (NCI/ADR-RES ovarian): > 100 µM
TGI (PC-3 prostate): > 100 µM
TGI (HCC-2998 colon): > 100 µM

O=C(NCCN1CCOCC1)c1ccc(I)cc1
TGI (SNB-19 CNS): > 100 µM
TGI (SF-539 CNS): > 100 µM
TGI (BT-549 breast): > 100 µM
TGI (CAKI-1 renal): > 100 µM
TGI (HL-60(TB) leukemia): > 100 µM
TGI (MCF7 breast): > 100 µM
TGI (HCT-15 colon): > 100 µM
TGI (NCI/ADR-RES ovarian): > 100 µM
TGI (PC-3 prostate): > 100 µM
TGI (HCC-2998 colon): > 100 µM

C=C1CC[C@H]2C(=O)OC(c3ccoc3)C[C@]2(C)C/C=C\C=C/1C(=O)OC (some centres not stated)
TGI (RXF 393 renal): > 25 µM
TGI (SNB-19 CNS): > 25 µM
TGI (SF-539 CNS): > 25 µM
TGI (BT-549 breast): > 25 µM
TGI (CAKI-1 renal): > 25 µM
TGI (MCF7 breast): > 25 µM
TGI (HCT-15 colon): > 25 µM
TGI (NCI/ADR-RES ovarian): > 25 µM
TGI (PC-3 prostate): > 25 µM
TGI (HCC-2998 colon): > 25 µM

OC(C/C=N/N=C/CC(O)(C(F)(F)Cl)C(F)(F)Cl)(C(F)(F)Cl)C(F)(F)Cl
TGI (RXF 393 renal): > 10 µM
TGI (SNB-19 CNS): > 10 µM
TGI (SF-539 CNS): > 10 µM
TGI (T-47D breast): > 10 µM
TGI (CAKI-1 renal): > 10 µM
TGI (HL-60(TB) leukemia): > 10 µM
TGI (MCF7 breast): > 10 µM
TGI (HCT-15 colon): > 10 µM
TGI (NCI/ADR-RES ovarian): > 10 µM
TGI (PC-3 prostate): > 10 µM
TGI (HCC-2998 colon): > 10 µM

Nc1c(S(=O)(=O)c2ccccc2)c2nc3ccccc3nc2n2c1nc1ccccc12
TGI (RXF 393 renal): > 100 µM
TGI (SNB-19 CNS): > 93.2 µM
TGI (SF-539 CNS): > 53.9 µM
TGI (CAKI-1 renal): > 100 µM
TGI (HL-60(TB) leukemia): > 100 µM
TGI (HCT-15 colon): > 100 µM
TGI (HCC-2998 colon): > 100 µM

O=c1cc(CF)[nH]c(=S)[nH]1
TGI (RXF 393 renal): > 100 µM
TGI (SNB-19 CNS): > 100 µM
TGI (BT-549 breast): > 100 µM
TGI (T-47D breast): > 100 µM
TGI (CAKI-1 renal): > 100 µM
TGI (HCT-15 colon): > 100 µM
TGI (NCI/ADR-RES ovarian): > 100 µM
TGI (PC-3 prostate): > 100 µM
TGI (HCC-2998 colon): > 100 µM

COCn1cnc2c(=O)nc(SC)n(-c3ccccc3)c21
TGI (RXF 393 renal): > 100 µM
TGI (SNB-19 CNS): > 100 µM
TGI (SF-539 CNS): > 100 µM
TGI (BT-549 breast): > 100 µM
TGI (T-47D breast): > 100 µM
TGI (CAKI-1 renal): > 100 µM
TGI (HL-60(TB) leukemia): > 100 µM
TGI (MCF7 breast): > 100 µM
TGI (HCT-15 colon): > 100 µM
TGI (NCI/ADR-RES ovarian): > 100 µM
TGI (HCC-2998 colon): > 100 µM

CCOC(=O)C(NC(=O)c1ccccc1)(N1CCN(c2cc3c(cc2F)c(=O)c(C(=O)O)cn3C2CC2)CC1)C(F)(F)F (configuration not stated)
TGI (RXF 393 renal): 36.5 µM
TGI (SNB-19 CNS): > 100 µM
TGI (SF-539 CNS): 30.9 µM
TGI (BT-549 breast): 50.9 µM
TGI (T-47D breast): 46.1 µM
TGI (CAKI-1 renal): 50.2 µM
TGI (HL-60(TB) leukemia): 36.5 µM
TGI (PC-3 prostate): 60.2 µM
TGI (HCC-2998 colon): 38.6 µM

CC(NC(=O)c1c(O)[nH]c(=S)[nH]c1=O)c1ccc([N+](=O)[O-])cc1 (configuration not stated)
TGI (RXF 393 renal): > 100 µM
TGI (SNB-19 CNS): > 100 µM
TGI (SF-539 CNS): > 100 µM
TGI (BT-549 breast): > 100 µM
TGI (T-47D breast): > 100 µM
TGI (CAKI-1 renal): > 100 µM
TGI (HL-60(TB) leukemia): > 100 µM
TGI (MCF7 breast): > 100 µM
TGI (HCT-15 colon): > 100 µM
TGI (PC-3 prostate): > 100 µM
TGI (HCC-2998 colon): > 100 µM

COc1cc2c(cc1O)NC(=O)[C@@H]1CCCN1C2=O
TGI (RXF 393 renal): > 100 µM
TGI (SNB-19 CNS): > 100 µM
TGI (SF-539 CNS): > 100 µM
TGI (BT-549 breast): > 100 µM
TGI (T-47D breast): > 100 µM
TGI (CAKI-1 renal): > 100 µM
TGI (MCF7 breast): > 100 µM
TGI (HCT-15 colon): > 100 µM
TGI (NCI/ADR-RES ovarian): > 100 µM
TGI (PC-3 prostate): > 100 µM
TGI (HCC-2998 colon): > 100 µM

CCCCCCc1cc2cc(C(=O)Nc3ccc(F)cc3)c(=N)oc2cc1O
TGI (SNB-19 CNS): 25.3 µM
TGI (SF-539 CNS): 4.82 µM
TGI (BT-549 breast): 7.32 µM
TGI (CAKI-1 renal): 13.6 µM
TGI (HL-60(TB) leukemia): 4.62 µM
TGI (MCF7 breast): 33.7 µM
TGI (HCT-15 colon): 7.62 µM
TGI (NCI/ADR-RES ovarian): 8.94 µM
TGI (PC-3 prostate): 13.5 µM
TGI (HCC-2998 colon): > 100 µM

COc1ccc(/C(Cl)=C(\C#N)c2ccc(OC)c(OC)c2)cc1OC
TGI (RXF 393 renal): > 100 µM
TGI (SNB-19 CNS): > 100 µM
TGI (SF-539 CNS): > 100 µM
TGI (BT-549 breast): > 100 µM
TGI (T-47D breast): > 100 µM
TGI (CAKI-1 renal): > 100 µM
TGI (HL-60(TB) leukemia): > 100 µM
TGI (MCF7 breast): > 100 µM
TGI (HCT-15 colon): > 100 µM
TGI (PC-3 prostate): > 100 µM
TGI (HCC-2998 colon): > 100 µM

COC(=O)C1=C(OC)[C@H]2C#C/C=C\C#C[C@@H]3Nc4c(cc(O)c5c4C(=O)c4ccccc4C5=O)[C@]24O[C@@]34[C@H]1C
TGI (SF-539 CNS): < 0.01 µM
TGI (BT-549 breast): < 0.0339 µM
TGI (CAKI-1 renal): < 0.01 µM
TGI (HL-60(TB) leukemia): < 0.01 µM
TGI (MCF7 breast): 0.126 µM
TGI (HCT-15 colon): 0.0147 µM
TGI (NCI/ADR-RES ovarian): < 0.01 µM
TGI (PC-3 prostate): 0.138 µM
TGI (HCC-2998 colon): < 0.0135 µM

COc1ccc(N2C(=O)C(=O)N(c3ccc(N=Nc4ccccc4)cc3)C2=S)cc1
TGI (RXF 393 renal): 32.4 µM
TGI (SNB-19 CNS): 53.4 µM
TGI (SF-539 CNS): 34.2 µM
TGI (T-47D breast): 45.1 µM
TGI (CAKI-1 renal): 47.2 µM
TGI (HL-60(TB) leukemia): > 100 µM
TGI (HCT-15 colon): 32.4 µM
TGI (NCI/ADR-RES ovarian): 35.9 µM
TGI (PC-3 prostate): 33.8 µM
TGI (HCC-2998 colon): 30.1 µM

NC1(CCNC(=O)c2ccccc2)CCN(C(=O)c2ccccc2)CC1
TGI (RXF 393 renal): > 100 µM
TGI (SNB-19 CNS): > 100 µM
TGI (SF-539 CNS): > 100 µM
TGI (BT-549 breast): > 100 µM
TGI (T-47D breast): > 100 µM
TGI (CAKI-1 renal): > 100 µM
TGI (MCF7 breast): > 100 µM
TGI (HCT-15 colon): > 100 µM
TGI (NCI/ADR-RES ovarian): > 100 µM
TGI (PC-3 prostate): > 100 µM

COC(=O)N[C@H](C(=O)NC(OCc1ccccc1)C1COC(C)(C)O1)C(C)O[Si](C)(C)C(C)(C)C (some centres not stated)
TGI (RXF 393 renal): > 100 µM
TGI (SNB-19 CNS): > 100 µM
TGI (T-47D breast): > 100 µM
TGI (CAKI-1 renal): > 100 µM
TGI (HL-60(TB) leukemia): > 100 µM
TGI (MCF7 breast): > 100 µM
TGI (HCT-15 colon): > 100 µM
TGI (NCI/ADR-RES ovarian): > 100 µM
TGI (PC-3 prostate): > 100 µM
TGI (HCC-2998 colon): > 100 µM

CCOC(=O)c1ccc(-c2ccc(Cl)cc2)[nH]1
TGI (SNB-19 CNS): > 10 µM
TGI (SF-539 CNS): > 10 µM
TGI (BT-549 breast): > 10 µM
TGI (HL-60(TB) leukemia): > 10 µM
TGI (HCT-15 colon): > 10 µM
TGI (NCI/ADR-RES ovarian): > 10 µM
TGI (HCC-2998 colon): > 10 µM
